Assay [1] deals with LRRK2 wild type enzyme (Homo sapiens, UniProt Q5S007). The assay can be described thus: Biochemical Assay: LRRK2 TR-FRET (LanthaScreen) kinase assay with LRRKtide substrate. The conditions noted are these: LRRK2 Inhibition, Table 8. The gist of the method: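 TR-FRET detection (Tb-labelled phospho-LRRKtide antibody, EDTA stop, 30 min) followed a 120 min, 23 °C reaction of 3 nM wild-type human LRRK2 with LRRKtide (400 nM) and ATP (25 μM) in Tris pH 8.0. Compounds: 11-point 3-fold series from 10 μM, 15 min enzyme preincubation.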
LRRK2 wild type enzyme, sequence (Q5S007 whole entry): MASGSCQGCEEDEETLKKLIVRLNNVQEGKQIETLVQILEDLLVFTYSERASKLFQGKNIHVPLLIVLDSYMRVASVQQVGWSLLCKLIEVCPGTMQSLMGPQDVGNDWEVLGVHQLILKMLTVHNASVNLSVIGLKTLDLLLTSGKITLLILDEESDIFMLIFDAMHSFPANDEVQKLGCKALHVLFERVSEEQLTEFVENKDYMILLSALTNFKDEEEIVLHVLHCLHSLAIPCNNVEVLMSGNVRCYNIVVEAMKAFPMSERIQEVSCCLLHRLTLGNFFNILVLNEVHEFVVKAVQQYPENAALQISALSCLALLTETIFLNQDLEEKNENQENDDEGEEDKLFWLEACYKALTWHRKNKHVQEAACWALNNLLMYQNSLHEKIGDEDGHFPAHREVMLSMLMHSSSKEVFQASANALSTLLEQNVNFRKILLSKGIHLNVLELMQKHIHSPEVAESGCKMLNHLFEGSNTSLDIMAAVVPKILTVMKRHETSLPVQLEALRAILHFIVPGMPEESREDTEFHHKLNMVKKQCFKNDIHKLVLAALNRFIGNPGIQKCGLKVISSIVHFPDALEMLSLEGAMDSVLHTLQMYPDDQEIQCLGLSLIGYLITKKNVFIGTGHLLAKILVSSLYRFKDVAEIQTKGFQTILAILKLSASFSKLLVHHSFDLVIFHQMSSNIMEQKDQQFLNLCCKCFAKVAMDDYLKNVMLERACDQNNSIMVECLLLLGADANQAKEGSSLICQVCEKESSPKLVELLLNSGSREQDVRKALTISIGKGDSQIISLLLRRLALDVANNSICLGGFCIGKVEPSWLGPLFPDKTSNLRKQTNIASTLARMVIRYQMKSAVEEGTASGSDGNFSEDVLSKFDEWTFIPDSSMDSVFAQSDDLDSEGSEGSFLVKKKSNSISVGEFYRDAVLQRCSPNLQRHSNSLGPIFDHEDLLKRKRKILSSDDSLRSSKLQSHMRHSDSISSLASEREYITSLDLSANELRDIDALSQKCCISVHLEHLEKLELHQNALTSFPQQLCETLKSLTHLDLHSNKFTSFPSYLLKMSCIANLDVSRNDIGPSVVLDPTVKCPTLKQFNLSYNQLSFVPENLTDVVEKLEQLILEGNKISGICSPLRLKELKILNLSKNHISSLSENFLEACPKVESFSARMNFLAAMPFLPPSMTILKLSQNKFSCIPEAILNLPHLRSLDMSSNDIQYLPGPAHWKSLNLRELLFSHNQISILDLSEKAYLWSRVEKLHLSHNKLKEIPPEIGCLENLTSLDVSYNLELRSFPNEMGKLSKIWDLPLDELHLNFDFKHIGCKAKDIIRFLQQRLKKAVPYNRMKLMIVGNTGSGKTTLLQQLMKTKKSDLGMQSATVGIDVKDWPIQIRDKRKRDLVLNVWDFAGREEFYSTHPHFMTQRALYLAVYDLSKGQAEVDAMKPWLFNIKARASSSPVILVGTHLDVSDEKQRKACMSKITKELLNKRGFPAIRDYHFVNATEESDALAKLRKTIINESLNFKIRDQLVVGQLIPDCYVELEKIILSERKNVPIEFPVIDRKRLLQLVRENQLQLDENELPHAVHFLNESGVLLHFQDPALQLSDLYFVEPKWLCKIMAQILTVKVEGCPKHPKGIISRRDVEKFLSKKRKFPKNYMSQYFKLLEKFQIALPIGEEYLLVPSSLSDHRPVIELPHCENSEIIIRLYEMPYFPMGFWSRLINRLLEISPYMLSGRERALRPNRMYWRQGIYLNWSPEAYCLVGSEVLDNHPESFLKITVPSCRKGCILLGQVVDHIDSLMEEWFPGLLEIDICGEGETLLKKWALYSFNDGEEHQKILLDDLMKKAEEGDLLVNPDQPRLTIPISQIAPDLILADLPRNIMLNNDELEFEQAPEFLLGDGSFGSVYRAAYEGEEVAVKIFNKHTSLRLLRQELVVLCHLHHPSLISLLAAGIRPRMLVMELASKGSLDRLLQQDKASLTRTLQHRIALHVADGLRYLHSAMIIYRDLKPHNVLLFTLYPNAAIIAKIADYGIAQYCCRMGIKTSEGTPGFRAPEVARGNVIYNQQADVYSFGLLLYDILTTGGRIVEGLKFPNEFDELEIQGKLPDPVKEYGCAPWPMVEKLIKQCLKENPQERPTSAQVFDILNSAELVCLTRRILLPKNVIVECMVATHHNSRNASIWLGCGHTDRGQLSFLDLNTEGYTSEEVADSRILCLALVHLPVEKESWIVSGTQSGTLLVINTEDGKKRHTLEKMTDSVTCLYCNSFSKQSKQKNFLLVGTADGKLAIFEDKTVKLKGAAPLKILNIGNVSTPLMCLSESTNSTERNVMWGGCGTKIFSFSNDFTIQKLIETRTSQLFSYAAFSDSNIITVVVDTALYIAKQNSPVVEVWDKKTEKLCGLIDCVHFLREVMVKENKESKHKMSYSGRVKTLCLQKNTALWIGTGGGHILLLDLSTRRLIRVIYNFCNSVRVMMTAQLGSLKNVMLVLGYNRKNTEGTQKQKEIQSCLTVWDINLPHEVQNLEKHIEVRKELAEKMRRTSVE
(In general: TR-FRET usually uses a lanthanide donor and a delayed reading to cut background.)

In assay [2] the target is T1, wild type LRRK2 overexpressed in recombinant HEK-293T cells (Homo sapiens, UniProt Q5S007).
T1 construct: host or cells: HEK293T (transient transfection with pCMV-LRRK2 WT plasmid)
T1 sequence (Q5S007 whole entry): as above
Put plainly: pS935 LRRK2 Cell Assay (HTRF, phospho-LRRK2 Ser935). Type of assay: cell-based. The conditions noted are these: LRRK2 Inhibition, Table 8, 2 hours compound incubation. A digest of the protocol: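 Phospho-Ser935 LRRK2 measured by two-antibody HTRF (Eu-cryptate donor, d2 acceptor; 665/615 nm ratio) after overnight detection at 23° C. Before lysis, transiently LRRK2-transfected HEK-293T cells were exposed 2 h at 37° C to a 9-point, 3-fold series from 10 μM, with DMSO at 0.2%.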

As usually defined, the IC50 is the concentration that gives 50% inhibition. For `C[C@@H]1C[C@H](n2c(CC(=O)NCC(F)(F)F)nc3cnc4ccc(C#N)cc4c32)CCO1` [Compound 186, 2-{8-cyano-1-[(2R,4R)-2-methyloxan-4-yl]-1H-imidazo[4,5-c]quinolin-2-yl}-N-(2,2,2-trifluoroethyl)acetamide], the concentration for half-maximal inhibition (IC50) stood at 0.556 nM in assay [1] and 43.9 nM in assay [2].
As for `C[C@@H]1C[C@H](n2c(C3CC(=O)N(Cc4cccnc4)C3)nc3cnc4ccc(C#N)cc4c32)CCO1` (single isomer, unassigned) [Compound 30, 1-[(2R,4R)-2-methyloxan-4-yl]-2-[(3R*)-5-oxo-1-[(pyridin-3-yl)methyl]pyrrolidin-3-yl]-1H-imidazo[4,5-c]quinoline-8-carbonitrile], the values for the IC50 in assay [1] and in assay [2] were 0.567 nM and 41.3 nM, respectively.
For the molecule `C[C@@H]1C[C@H](n2c(CC(=O)NCC3CC3)nc3cnc4ccc(C#N)cc4c32)CCO1` [Compound 54, 2-{8-cyano-1-[(2R,4R)-2-methyloxan-4-yl]-1H-imidazo[4,5-c]quinolin-2-yl}-N-(cyclopropylmethyl)acetamide], the IC50 in assay [1] amounted to 0.336 nM; in assay [2], 14.9 nM.
With `C[C@@H]1C[C@H](n2c(CC(=O)N[C@H]3C[C@H]3F)nc3cnc4ccc(C#N)cc4c32)CCO1` [Compound 289, N-[(1S,2R)-2-fluorocyclopropyl]{3-[(2R,4R)-2-methyltetrahydro-2H-pyran-4-yl]-12-cyano-3,5,8-triazatricyclo[7.4.0.0^2,6]trideca-1,4,6,8,10,12-hexaen-4-yl}acetamide], the IC50 in assay [1] turned out to be 0.692 nM; in assay [2] it was 54.5 nM.
As for `C[C@@H]1C[C@H](n2c(C3CN(C(=O)C4CC4)C3)nc3cnc4ccc(C#N)cc4c32)CCO1` [Compound 68, 2-(1-cyclopropanecarbonylazetidin-3-yl)-1-[(2R,4R)-2-methyloxan-4-yl]-1H-imidazo[4,5-c]quinoline-8-carbonitrile], the figures for the IC50 in assay [1] and in assay [2] were 7.43 nM and 1140 nM, respectively.
On to `Cc1noc(C)c1NC(=O)Cc1nc2cnc3ccc(C#N)cc3c2n1[C@@H]1CCO[C@H](C)C1` [Compound 201, N-(3,5-dimethyl-4-isoxazolyl){3-[(2R,4R)-2-methyltetrahydro-2H-pyran-4-yl]-12-cyano-3,5,8-triazatricyclo[7.4.0.0^2,6]trideca-1,4,6,8,10,12-hexaen-4-yl}acetamide], for which the IC50 came to 0.377 nM in assay [1] and 11.6 nM in assay [2].
Consider `C[C@@H]1C[C@H](n2c(CC(=O)NCC3(C)CC3)nc3cnc4ccc(C#N)cc4c32)CCO1` [Compound 265, N-(1-methylcyclopropyl)methyl{3-[(2R,4R)-2-methyltetrahydro-2H-pyran-4-yl]-12-cyano-3,5,8-triazatricyclo[7.4.0.0^2,6]trideca-1,4,6,8,10,12-hexaen-4-yl}acetamide], for which the IC50 in assay [1] worked out at 0.548 nM; in assay [2], 22.4 nM.
Consider `C[C@@H]1C[C@H](n2c(CC3CN(C(=O)OC(C)(C)C)C3)nc3cnc4ccc(C#N)cc4c32)CCO1` [Compound 73, tert-butyl 3-({8-cyano-1-[(2R,4R)-2-methyloxan-4-yl]-1H-imidazo[4,5-c]quinolin-2-yl}methyl)azetidine-1-carboxylate], for which the IC50 amounted to 3.88 nM in assay [1] and 251 nM in assay [2].
The like results for `C[C@@H]1C[C@H](n2c(C3CC(=O)N([C@@H]4CCCOC4)C3)nc3cnc4ccc(C#N)cc4c32)CCO1` (stereo partly drawn) [Compound 51, 1-[(2R,4R)-2-methyloxan-4-yl]-2-{1-[(3R)-oxan-3-yl]-5-oxopyrrolidin-3-yl}-1H-imidazo[4,5-c]quinoline-8-carbonitrile] were, in that order, 3.03 nM and 312 nM.
The like results for `C[C@@H]1C[C@H](n2c(C3CCN(CC4CC4)C(=O)C3)nc3cnc4ccc(C#N)cc4c32)CCO1` (stereo partly drawn) [Compound 49, 2-[1-(cyclopropylmethyl)-2-oxopiperidin-4-yl]-1-[(2R,4R)-2-methyloxan-4-yl]-1H-imidazo[4,5-c]quinoline-8-carbonitrile] were, in that order, 15.3 nM and 871 nM.

For the origin of these results see patent publication US20250270209A1 (INTERLINE THERAPEUTICS, INC., priority 2022, published 2025).
